Consider eight compounds from ChEMBL document CHEMBL5331143, “Stereochemistry-Driven Interactions of α,γ-Peptide Ligands with the Neuropeptide Y Y4-Receptor” (J Med Chem, 2023).

As usually defined, the half-life is the time needed for the level to fall by half in the phase considered.

Starred links: 1 amine or outer side, 2 acyl side, 3 side chain; linkers in the order of their positions; H or OH if unused. Non-standard residues stand in square brackets, D forms with d. Residues, ends and D or L forms follow the SMILES beside them. X1 = O=C([C@@H]1C[C@@H](c2ccccc2)[C@@H]1CN[*:1])[*:2]; X2 = O=C([C@H]1C[C@H](c2ccccc2)[C@H]1CN[*:1])[*:2] Some results are limits rather than exact numbers.

Data set [1] addresses T1, Neuropeptide Y receptor type 5 (Homo sapiens, UniProt Q15761).
T1 sequence (Q15761 whole entry): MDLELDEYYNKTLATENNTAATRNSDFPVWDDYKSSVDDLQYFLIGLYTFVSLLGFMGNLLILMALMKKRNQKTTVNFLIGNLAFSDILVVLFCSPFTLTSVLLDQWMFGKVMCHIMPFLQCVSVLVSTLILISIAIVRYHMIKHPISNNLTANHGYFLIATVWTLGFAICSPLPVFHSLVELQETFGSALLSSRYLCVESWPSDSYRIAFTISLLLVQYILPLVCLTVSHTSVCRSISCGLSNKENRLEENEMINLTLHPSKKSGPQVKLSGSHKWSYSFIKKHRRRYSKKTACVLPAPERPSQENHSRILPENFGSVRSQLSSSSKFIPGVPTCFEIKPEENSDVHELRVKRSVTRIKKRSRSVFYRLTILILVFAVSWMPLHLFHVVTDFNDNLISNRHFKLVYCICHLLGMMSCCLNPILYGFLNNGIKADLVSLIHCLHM
Nature of the data set: Displacement of [3H]propionyl-pNPY from human Y5 receptor expressed in HEC-1B cells measured after 90 mins by MicroBeta plate counter based competition binding assay. It counts as cell-based, HEC-1B cell line. On the technique in general: In a radioligand displacement assay an active substance lowers the binding of a labelled ligand.

Data set [2] is described as follows: Stability in human plasma assessed as time constant by measuring loss of intact peptide at 100 uM measured upto 24 hrs at 37 degC. It counts as ADME, cell-free.
The target of data set [3] is T2, Neuropeptide Y receptor type 4 (Homo sapiens, UniProt P50391). The experiment in a line: Agonist potency at human Y4 receptor expressed in HEK293T-NlucN-mGSi/Y4R-NlucC cells by miniGsi protein recruitment assay. The data set is classed as cell-based.
Data set [4] deals with T2, Neuropeptide Y receptor type 4. The experiment in a line: Agonist potency at human Y4 receptor expressed in HEK293T-NlucN-mGSi/Y4R-NlucC cells assessed as intrinsic activity by miniGsi protein recruitment assay relative to hPP. The data set is classed as cell-based. The following applies: filed as agonist.
Data set [5] addresses T3, Neuropeptide Y receptor type 2 (Homo sapiens, UniProt P49146).
T3 sequence (P49146 whole entry): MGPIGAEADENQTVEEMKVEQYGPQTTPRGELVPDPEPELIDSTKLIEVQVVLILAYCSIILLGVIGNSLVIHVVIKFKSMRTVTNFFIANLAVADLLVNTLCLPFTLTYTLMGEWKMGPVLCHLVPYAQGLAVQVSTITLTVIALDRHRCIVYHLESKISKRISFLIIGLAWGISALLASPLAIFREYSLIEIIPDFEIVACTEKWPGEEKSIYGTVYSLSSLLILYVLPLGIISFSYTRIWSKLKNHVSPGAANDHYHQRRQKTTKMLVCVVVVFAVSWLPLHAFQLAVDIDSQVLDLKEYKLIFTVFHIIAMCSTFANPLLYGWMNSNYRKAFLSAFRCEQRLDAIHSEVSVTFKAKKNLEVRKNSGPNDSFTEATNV
The experiment in a line: Displacement of [3H]propionyl-pNPY from human Y2 receptor expressed in CHO cells measured after 90 mins by MicroBeta plate counter based competition binding assay. The data set is classed as cell-based.

The nature of data set [6]: Stability in human plasma assessed as rate constant by measuring loss of intact peptide at 100 uM measured upto 24 hrs at 37 degC. The data set is classed as ADME, cell-free.
The nature of data set [7]: Stability in human plasma assessed as half life time by measuring loss of intact peptide at 100 uM measured upto 24 hrs at 37 degC. It counts as ADME, cell-free.
Data set [8] deals with T2, Neuropeptide Y receptor type 4. The experiment in a line: Displacement of [3H]UR-KK200 from human Y4 receptor expressed in CHO-Gqi5-mtAQE cells measured after 90 mins by MicroBeta plate counter based competition binding assay. It counts as cell-based.
Data set [9] is described as follows: Stability in human plasma assessed as intact remained level in presence of ramipril ACE inhibitor measured over 4 hrs at 37 degC. It counts as ADME, cell-free.

T2 sequence (P50391 whole entry): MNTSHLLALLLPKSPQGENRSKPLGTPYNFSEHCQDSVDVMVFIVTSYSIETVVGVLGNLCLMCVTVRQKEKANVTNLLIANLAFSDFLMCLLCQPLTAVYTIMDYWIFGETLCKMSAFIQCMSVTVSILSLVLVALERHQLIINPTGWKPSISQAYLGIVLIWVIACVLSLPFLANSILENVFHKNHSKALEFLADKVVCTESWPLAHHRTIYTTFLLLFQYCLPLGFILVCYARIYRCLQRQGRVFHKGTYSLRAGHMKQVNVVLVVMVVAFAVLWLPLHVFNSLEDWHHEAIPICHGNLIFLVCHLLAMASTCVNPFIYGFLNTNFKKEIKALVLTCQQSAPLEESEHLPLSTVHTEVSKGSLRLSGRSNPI

As for `CC(=O)N[C@@H](CCCNC(=N)N)C(=O)N[C@@H](Cc1ccc(O)cc1)C(=O)N[C@@H](CCCNC(=N)N)C(=O)N[C@@H](CC(C)C)C(=O)N[C@@H](CCCNC(=N)N)C(=O)N[C@@H](Cc1ccc(O)cc1)C(N)=O`, the Ki was greater than 5000 nM in data set [1] (read-out: Ki), greater than 5010 nM in data set [1] (read-out: pKi (converted)), greater than 5000 nM in data set [5] (read-out: Ki) and greater than 5010 nM in [5] (read-out: pKi (converted)). The K in [2] was determined as 0.5 h⁻¹. The EC50 in data set [3] (read-out: EC50) was found to be 110 nM. For the same compound, the Intrinsic activity in [4] amounted to 0.58. Besides, the half-life at 100 µM was 1.4 h in data set [6] and 2 h in data set [7].
With `CC(=O)N[C@@H](CCCNC(=N)N)C(=O)NC[C@H]1[C@@H](C(=O)N[C@@H](CCCNC(=N)N)C(=O)NC[C@H]2[C@@H](C(=O)N[C@@H](CCCNC(=N)N)C(=O)N[C@@H](Cc3ccc(O)cc3)C(N)=O)C[C@@H]2c2ccccc2)C[C@@H]1c1ccccc1` (Ac-R[X2]R[X2]RY-NH2), the Ki in [1] (hec-1b cell line, read-out: Ki) is greater than 1000 nM; in [1] (read-out: pKi (converted)), greater than 1000 nM; in data set [5] (read-out: Ki), greater than 3000 nM; in [5] (read-out: pKi (converted)), greater than 3160 nM; in data set [8] (read-out: Ki), 910 nM; in data set [8] (read-out: pKi (converted)), 891 nM.
Turning to `CC(C)C[C@H](NC(=O)[C@@H]1CCCNC(=N)NC(=O)NCCCCNC(=O)CCC(=O)N[C@@H](CCCNC(=N)N)C(=O)N[C@@H](Cc2c[nH]c3ccccc23)C(=O)N1)C(=O)N[C@@H](CCCNC(=N)N)C(=O)N[C@@H](Cc1ccc(O)cc1)C(N)=O`, in data set [4], the Intrinsic activity was determined as 80%.
Still for that read-out and setting: next, `CC(C)C[C@H](NC(=O)[C@@H](N)CCCNC(=N)N)C(=O)N[C@@H](CCCNC(=N)N)C(=O)N[C@@H](Cc1ccc(O)cc1)C(N)=O`: 54%.
Consider `CC(C)C[C@H](NC(=O)[C@@H]1CCCNC(=N)NC(=O)NCCCCNC(=O)CCC(=O)N[C@@H](CCCNC(=N)N)C(=O)N[C@@H](Cc2ccc(O)cc2)C(=O)N1)C(=O)N[C@@H](CCCNC(=N)N)C(=O)N[C@@H](Cc1ccc(O)cc1)C(N)=O`, for which, in data set [3] (hek293t, read-out: EC50), the EC50 came out at 1.7 nM. In addition, in data set [4], the Intrinsic activity came out at 68%.
Regarding `CC(=O)N[C@@H](CCCNC(=N)N)C(=O)NC[C@H]1[C@@H](C(=O)N[C@@H](CCCNC(=N)N)C(=O)N[C@@H](CC(C)C)C(=O)N[C@@H](CCCNC(=N)N)C(=O)N[C@@H](Cc2ccc(O)cc2)C(N)=O)C[C@@H]1c1ccccc1` (Ac-R[X2]RLRY-NH2), the Ki in data set [1] (read-out: Ki) is greater than 3000 nM; in data set [1] (read-out: pKi (converted)) it was greater than 3160 nM; in data set [5] (read-out: Ki), greater than 3000 nM; in data set [5] (read-out: pKi (converted)), greater than 3160 nM; in data set [8] (read-out: Ki), 12 nM. For the same compound, the K in data set [2] amounted to 0.31 h⁻¹. The EC50 in data set [3] (read-out: EC50) is 610 nM; in data set [3] (read-out: pEC50 (converted)), 468 nM. Also, the Intrinsic activity in data set [4] turned out to be 0.39. Besides, the figures for the half-life at 100 µM in data set [6] and in data set [7] were 2.2 h and 3.2 h, respectively. Also, the Stability entry in [9] is recorded as “Stable”.
Consider `CC(=O)N[C@@H](CCCNC(=N)N)C(=O)NC[C@@H]1[C@H](C(=O)N[C@@H](CCCNC(=N)N)C(=O)N[C@@H](CC(C)C)C(=O)N[C@@H](CCCNC(=N)N)C(=O)N[C@@H](Cc2ccc(O)cc2)C(N)=O)C[C@H]1c1ccccc1` (Ac-R[X1]RLRY-NH2), for which the Ki in data set [1] (read-out: Ki) is greater than 3000 nM; in data set [1] (read-out: pKi (converted)) it was greater than 3160 nM; in data set [5] (cho, read-out: Ki), greater than 1000 nM; in data set [5] (read-out: pKi (converted)), greater than 1000 nM; in [8] (read-out: Ki), 0.66 nM; in data set [8] (read-out: pKi (converted)), 0.646 nM. Further, the K in data set [2] came out at 1.83 h⁻¹. The EC50 was 20 nM in [3] (read-out: EC50) and 18.6 nM in data set [3] (read-out: pEC50 (converted)). In addition, the Intrinsic activity in data set [4] was found to be 0.5. Also, the half-life at 100 µM is 0.4 h in data set [6] and 0.55 h in data set [7]. In addition, in data set [9], the Stability result was “Stable”.
In the case of `CC(=O)N[C@@H](CCCNC(=N)N)C(=O)NC[C@@H]1[C@H](C(=O)N[C@@H](CCCNC(=N)N)C(=O)NC[C@@H]2[C@H](C(=O)N[C@@H](CCCNC(=N)N)C(=O)N[C@@H](Cc3ccc(O)cc3)C(N)=O)C[C@H]2c2ccccc2)C[C@H]1c1ccccc1` (Ac-R[X1]R[X1]RY-NH2), the Ki in data set [1] (hec-1b cell line, read-out: Ki) was greater than 1000 nM; in data set [1] (read-out: pKi (converted)), greater than 1000 nM; in data set [5] (read-out: Ki), greater than 3000 nM; in data set [5] (read-out: pKi (converted)), greater than 3160 nM; in [8] (read-out: Ki), 340 nM; in data set [8] (read-out: pKi (converted)), 331 nM.
